Reference: patent US11078496B2, “System for F-box hormone receptor regulated protein expression in mammalian cells” (ICAHN SCHOOL OF MEDICINE AT MOUNT SINAI, priority 2016, dated 2021)
Read-outs that look alike come from different tables or passages of the source.

How the values were obtained:
[1] = target: T1, AID^47-NANOG (A-NANOG) (UniProt P93830+Q7XVM8); experiment: Auxin-dependent depletion of A-NANOG in mESCs (western blot); format: cell-based, mouse
T1 construct: (encoding NP_001052659); 47-amino acid segment that corresponds to amino acids 63-109 of A. thaliana IAA17; expressed in transfected cells; host or cells: CCE mESCs (lentiviral pRAIDRS)
T1 sequence (Q7XVM8 whole entry, the tested form may be a part): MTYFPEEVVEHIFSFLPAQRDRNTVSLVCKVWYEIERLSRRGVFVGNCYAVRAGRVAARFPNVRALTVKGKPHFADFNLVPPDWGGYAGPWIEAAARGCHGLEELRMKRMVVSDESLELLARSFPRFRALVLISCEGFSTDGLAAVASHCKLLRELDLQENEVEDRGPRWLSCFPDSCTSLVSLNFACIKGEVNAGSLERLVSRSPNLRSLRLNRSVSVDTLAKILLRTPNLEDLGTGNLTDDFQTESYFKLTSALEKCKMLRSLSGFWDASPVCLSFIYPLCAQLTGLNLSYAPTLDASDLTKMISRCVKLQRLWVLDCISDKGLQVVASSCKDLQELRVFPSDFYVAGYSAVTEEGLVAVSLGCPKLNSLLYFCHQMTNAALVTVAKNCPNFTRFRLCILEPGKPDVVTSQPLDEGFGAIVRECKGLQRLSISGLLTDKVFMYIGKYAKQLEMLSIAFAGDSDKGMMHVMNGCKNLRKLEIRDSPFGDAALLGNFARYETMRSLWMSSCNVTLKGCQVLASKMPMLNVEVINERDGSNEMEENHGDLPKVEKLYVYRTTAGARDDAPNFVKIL
T1 sequence (P93830 63-109): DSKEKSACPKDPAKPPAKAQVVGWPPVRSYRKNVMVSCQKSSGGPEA
Method: FIGS. 3A-3D illustrate an auxin-degradable NANOG rescue system in mESCs. CCE mESCs were infected with pRAIDRS AID^47-NANOG (A-NANOG) or GFP-AID^47 (“GFP-A”) and selected clones with ESC morphology were analyzed for the effect of auxin (“IAA”) treatment. FIG. 3A is a western blot analysis depicting endogenous NANOG (*) and A-NANOG (**) in parental mESCs, and in the indicated clones. β-Actin serves as a loading control. Experiment was repeated three times and a representative blot is presented. FIG. 3B are images of mESC clones plated at low density, grown in the presence of ethanol (“Con”) or auxin (“IAA”) for 3-4 days and assayed for AP activity. GFP-A mESCs reached the desired confluency a day earlier and therefore the images were taken on different days. FIG. 3C are bright-field images showing representative morphology of A-NANOG mESCs following 3 days of ethanol (“Con”) or auxin (“IAA”) treatment (upper part) and merged bright-field and GFP fluorescence images of ethanol or auxin-treated GFP-A mESCs (lower part). Scale bars, 100 μm. […] All cells were subjected to the same concentration of ethanol for the duration of experiment. Quantitative real-time PCR analysis was performed for selected self-renewal and differentiation markers, and normalized expression levels are represented as a heatmap. […] See also FIGS. 4A-4F and FIG. 15. […]

[2] = tested on: AID-fused proteins in mammalian cells; settings: cited from earlier work

O=C(O)Cc1c[nH]c2ccccc12 [auxin, indole-3-acetic acid]
depletion of A-NANOG ([1]; A-NANOG #2 mESCs, 50 μM auxin, 30 minutes, western blot): complete depletion
time for >95% degradation of NANOG ([1]; pRAIDRS system, auxin-dependent protein depletion): 20 to 30 min
rapidity of auxin-dependent protein depletion ([2]; reported by Han et al.): ~90 min
rapidity of auxin-dependent protein depletion ([2]; reported by Holland et al.): 60 to 100 min
rapidity of auxin-dependent protein depletion ([2]; reported by Lambrus et al.): 10 to 30 min
rapidity of auxin-dependent protein depletion ([2]; reported by Rodriguez-Bravo et al.): > 120 min
